The values below come from patent publication US8044100B2, “Methods and compositions for treating amyloid-related diseases” (Bellus Health Inc., priority 2004, dated 2011).

For the experiment, the target named is T1, NAC peptide (Homo sapiens, UniProt P37840).
T1 construct: NAC is a 35 amino acid long peptide with highly hydrophobic stretches
Kind of experiment: Binding to NAC peptide by electrospray mass spectrometry. The conditions noted are these: 5:1 ratio compound:NAC (100 μM:20 μM or 200 μM:40 μM), pH 7.4; bound complex peak area / unbound NAC peak area. The protocol:
The ability of the compounds of the present invention to bind to NAC peptide in aqueous solution was evaluated. The binding ability correlates to the intensities of the peptide-compound complex peaks observed by the Electrospray Mass Spectrum. Millipore distilled deionized water was used to prepare all aqueous solutions. For pH determination a Beckman Φ36 pH meter fitted with a Corning Semi-Micro Combination pH Electrode was employed.
The optimal cone voltage was determined to be 20V.
Mass spectrometry—Mass spectrometric analysis was performed using a Waters ZQ 4000 mass spectrometer equipped with a Waters 2795 sample manager. MassLynx 4.0 (earlier by MassLynx 3.5) was used for data processing and analysis. Test compounds were mixed with disaggregated peptides in aqueous media (6.6% EtOH) at a 5:1 ratio (20 μM NAC:100 μM of test compound or 40 μM NAC:200 μM of test compound). The pH of the mixture was adjusted to 7.4 (+0.2) using 0.1% NaOH (3-5 μL). Periodically, NAC peptide solution at 20 μM or 40 μM was also prepared in the same fashion and run as control. The spectra were obtained by introducing the solutions to the electrospray source by direct infusion using a syringe pump at a flow rate of 25 μl/min, and scanning from 100 to 2100 Da in the positive mode. The scan time was 0.9 sec per scan with an inter-scan delay of 0.1 sec and the run time was 5 min for each sample. All the mass spectra were sum of 300 scans. The desolvation and source temperature was 70° C. and the cone and capillary voltage were maintained at 20 V and 3.2 kV respectively.
The total area under the peaks for the bound NAC-compound complex divided by total area under the peaks for unbound NAC was determined for each compound tested.

For `CC(C)(C)NCCCS(=O)(=O)O` [drawing 748], the “Binding Strength” value is “++ (Moderate; when the total binding is between 120% and 70%)”. To `NCCOS(=O)(=O)O` [NH2CH2CH2OSO3H] belongs “− (None; when the total binding is between 30% and 0%)”.
